Experimental data taken from patent US8586611B2 (priority 2005, dated 2013).

Tests used:
Assay type in all cases: in vivo
Phytophthora infestans [1] = experiment: whole plant or invertebrate; conditions: tomato late blight; spray 17 h after inoculation; compounds without asterisk (not 40 or 10 ppm)
[2] = test system: Erysiphe graminis f. sp. tritici; experiment: Test E: wheat powdery mildew, spray the day before inoculation (disease rating, 100 = 100% disease control); conditions: spray the day before inoculation, compounds without asterisk (not 40 or 10 ppm)
How it was run: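 Wheat seedlings sprayed to run-off with compound suspended in acetone/water 50/50 with 250 ppm Trem 014 (200 ppm equivalent to 500 g/ha); inoculated next day with Erysiphe graminis f. sp. tritici spore dust. Kept 7 days at 20° C, then rated 0–100% disease control versus controls.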

Phytophthora infestans [3] = experiment: whole plant or invertebrate; conditions: tomato late blight; spray the day before inoculation; compounds without asterisk (not 40 or 10 ppm)
Plasmopara viticola = experiment: Test B: grape downy mildew, spray 24 h after inoculation (disease rating, 100 = 100% disease control); conditions: spray 24 h after inoculation, compounds without asterisk (not 40 or 10 ppm)
How it was run: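 Grape seedlings were inoculated with Plasmopara viticola and held 24 h saturated at 20 °C, then sprayed to run-off with compound suspension (acetone/water with 250 ppm Trem 014; 200 ppm ≈ 500 g/ha). After 5 days at 20 °C and 24 h saturation, disease was rated from 0 to 100% control versus untreated.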

Compound	Test D disease rating (100 = 100% disease control, 0 = no disease control) (Phytophthora infestans [1]) [%]	Test E disease rating (100 = 100% disease control, 0 = no disease control) [2] [%]	Test C disease rating (100 = 100% disease control, 0 = no disease control) (Phytophthora infestans [3]) [%]	Test B disease rating (100 = 100% disease control, 0 = no disease control) (Plasmopara viticola) [%]
Cc1ccc(C)c(CC(=O)N2CCC(c3nc(C(=O)N(C)C4CCc5ccccc5C4)cs3)CC2)c1 (stereo not drawn) [compound 98]	0	0	84	0
Cc1ccc(C)c(CC(=O)N2CCC(c3nc(C(=O)N(C)C4CCCc5ccccc54)cs3)CC2)c1 (stereo not drawn) [compound 99]	99	0	100	97
Cc1ccc(C)c(CC(=O)N2CCC(c3nc(C(=O)N(C)C4CCc5ccccc54)cs3)CC2)c1 (stereo not drawn) [compound 100]	99	0	100	94
Cc1cc(C)n(CC(=O)N2CCC(c3nc(C(=O)N(C)[C@H](C)c4ccccc4)cs3)CC2)c1 [compound 101]	8	0	70	0
Cc1ccc(C)c(CC(=O)N2CCC(c3nc(C(=O)N(C)[C@H](C)c4ncc(Cl)cc4Cl)cs3)CC2)c1 [compound 111]	37	98	99	96
Cc1ccc(C)c(CC(=O)N2CCC(c3nc(C(=O)N(C)C(C)c4cc(C)sc4C)cs3)CC2)c1 (stereo not drawn) [compound 112]	99	95	100	93
Cc1ccc(C)c(CC(=O)N2CCC(c3nc(C(=O)N(C)C(C)c4cc(C)oc4C)cs3)CC2)c1 (stereo not drawn) [compound 113]	31	0	97	0
CC[C@H](c1ccccc1)N(C)C(=O)c1csc(C2CCN(C(=O)Cc3cc(C(F)(F)F)ccc3Cl)CC2)n1 [compound 114]	99	0	100	99
CC[C@H](c1ccccc1)N(C)C(=O)c1csc(C2CCN(C(=O)Cc3ccccc3OC)CC2)n1 [compound 115]	99	0	100	100
CC[C@H](c1ccccc1)N(C)C(=O)c1csc(C2CCN(C(=O)Cc3cccc(C)c3)CC2)n1 [compound 116]	87	0	49	100
CC[C@H](c1ccccc1)N(C)C(=O)c1csc(C2CCN(C(=O)Cn3nc(C)cc3C)CC2)n1 [compound 118]	99	0	100	99
Cc1nc(C)n(CC(=O)N2CCC(c3nc(C(=O)N(C)[C@H](C)c4ccccc4)cs3)CC2)n1 [compound 120]	100	0	51	7
Cc1cn(CC(=O)N2CCC(c3nc(C(=O)N(C)[C@H](C)c4ccccc4)cs3)CC2)c(C)n1 [compound 121]	0	0	47	0
C[C@H](c1ccccc1)N(C)C(=O)c1csc(C2CCN(C(=O)Cn3cnc(C(F)(F)F)n3)CC2)n1 [compound 122]	96	17	53	28
CCCc1nc(C(F)(F)F)cn1CC(=O)N1CCC(c2nc(C(=O)N(C)[C@H](C)c3ccccc3)cs2)CC1 [compound 123]	47	7	100	13
Cc1cc(C(C)C)nn1CC(=O)N1CCC(c2nc(C(=O)N(C)[C@H](C)c3ccccc3)cs2)CC1 [compound 127]	0	0	92	0
CCc1nc(C)cn1CC(=O)N1CCC(c2nc(C(=O)N(C)[C@H](C)c3ccccc3)cs2)CC1 [compound 128]	0	0	0	0
Cc1ccc(C)c(CC(=O)N2CCC(c3nc(C(=O)N(C)C4CCCCc5ccccc54)cs3)CC2)c1 (stereo not drawn) [compound 129]	57	0	50	0
Cc1ccc(C)c(CC(=O)N2CCC(c3nc(C(=O)N(C)[C@@H]4CCc5ccccc54)cs3)CC2)c1 [compound 130]	100	0	54	99
Cc1ccc(C)c(CC(=O)N2CCC(c3nc(C(=O)N(C)[C@H]4CCc5ccccc54)cs3)CC2)c1 [compound 131]	62	0	55	77
Cc1ccc(C)c(CC(=O)N2CCC(c3nc(C(=O)N(C)[C@H]4CCCc5ccccc54)cs3)CC2)c1 [compound 133]	79	0	53	77
Cc1ccc(C)c(CC(=O)N2CCC(c3nc(C(=O)N(C)C4CCCc5sccc54)cs3)CC2)c1 (stereo not drawn) [compound 134]	100	0	51	97
Cc1ccc(C)c(CC(=O)N2CCC(c3nc(C(=O)N(C)C4CCCc5occc54)cs3)CC2)c1 (stereo not drawn) [compound 135]	47	0	51	16
Cc1ccc(C)c(CC(=O)N2CCC(c3nc(C(=O)N(C)C4CCSc5ccccc54)cs3)CC2)c1 (stereo not drawn) [compound 136]	80	0	100	77
